Structures are written as SMILES.

The target in assay [1] is T1, POLRMT (Homo sapiens, UniProt O00411). Kind of assay: Single nucleotide incorporation by human mitochondrial RNA polymerase (POLRMT). It is filed as biochemical. The following applies: nucleotide triphosphate. Here is the method:
A mixture of MTCN buffer (50 mM MES, 25 mM Tris-HCl, 25 mM CAPS, and 50 mM NaCl, pH 7.5), 200 nM 5′^32 P-R12/D18, 10 mM MgCl2, 1 mM DTT, and 376 nM POLRMT was preincubated at 30° C. for 1 min. The reaction was started by addition of 500 μM (final) natural NTP or NTP analogs. At selected time points, the reaction mixture was removed and quenched with gel loading buffer containing 100 mM EDTA, 80% formamide, and bromophenol blue, and heated at 65° C. for 5 min. The samples were run on a 20% polyacrylamide gel (8 M urea), and the product formation was quantified using Typhoon Trio Imager and Image Quant TL Software (GE Healthcare, Piscataway, NJ). The rate of single nucleotide incorporation by mt RNA pol was calculated by fitting the product formation using the single exponential equation: [1R13]=A(1−e^−kt), where [1R13] represents the amount (in nM) of the elongated product formed, t represents the reaction time, k represents the observed rate, and A represents the amplitude of the exponential.

The target of assay [2] is T2, RSV RNP complexes (Human respiratory syncytial virus A, UniProt P28887).
T2 construct: The supernatant (S3) fraction, containing the enriched RSV RNP complexes, was collected; endogenous in cells; host or cells: HEp-2 cells infected with RSV A2; detergent-extracted S3 fraction
The assay is described as follows: RSV RNP assay (transcription). The class given is biochemical, RSV A2. Here is the method: RSV ribonucleoprotein (RNP) complexes were prepared from a method modified from Mason et al. (1). HEp-2 cells were plated at a density of 7.1×10^4 cells/cm^2 in MEM+10% fetal bovine serum (FBS) and allowed to attach overnight at 37° C. (5% CO2). Following attachment, the cells were infected with RSV A2 (MOI=5) in 35 mL MEM+2% FBS. At 20 hours post-infection, the media was replaced with MEM+2% FBS supplemented with 2 μg/mL actinomycin D and returned to 37° C. for one hour. The cells were then washed once with PBS and treated with 35 mL of PBS+250 μg/mL lyso-lecithin for one minute, after which all liquid was aspirated. […] The supernatant (S3) fraction, containing the enriched RSV RNP complexes, was collected and the protein concentration determined by UV absorbance at 280 nm. […]
Transcription reactions contained 25 μg of crude RSV RNP complexes in 30 μL of reaction buffer [50 mM TRIS-acetate (pH 8.0), 120 mM potassium acetate, 5% glycerol, 4.5 mM MgCl2, 3 mM DTT, 2 mM ethyleneglycol-bis(2-aminoethylether)-tetraacetic acid (EGTA), 50 μg/mL BSA, 2.5 U RNasin (Promega), ATP, GTP, UTP, CTP and 1.5 uCi [α-32P] […] The radiolabled nucleotide used in the transcription assay was selected to match the nucleotide analog being evaluated for inhibition of RSV RNP transcription. […]

Assay [3] deals with DENV2 NS5 (Dengue virus type 2, UniProt P14340). The assay is described as follows: DENV Pol IC50 (DENV2-NS5 polymerase assay). The following applies: nucleotide triphosphate. It is filed as biochemical. Here is the method: A 244 nucleotide secondary structureless heteropolymeric RNA (sshRNA) with sequence 5′-(UCAG)20(UCCAAG)14(UCAG)20-3′ (SEQ ID NO: 1) is used as the template with 5′-CUG-3′ primer in the DENV2-NS5 polymerase assay. Six two-fold dilutions of compounds starting from 200 nM and no inhibitor control are plated in 96-well plates. 100 nM DENV2 NS5 is preincubated for 5 minutes at room temperature in a reaction mixture containing 40 mM Tris-HCl (pH 7.5), 10 mM NaCl, 3 mM DTT, 0.2 unit/μL RNasin Plus RNase Inhibitor, 200 ng/μL sshRNA, 20 μM CUG and 2 mM MgCl2. Enzyme mix is added to compound dilutions and reactions initiated by the addition of a mixture containing 20 μM of three natural NTP plus 2 μM of analog:base matched competing natural NTP containing 1:100 α-33P-NTP. After 90 minutes at 30° C., 5 μL of the reaction mixtures are spotted on DE81 anion exchange paper. Filter papers are washed three times with Na2HPO4 (125 mM, pH 9) for 5 minutes, rinsed with water and ethanol, then air-dried and exposed to phosphorimager. Synthesized RNA is quantified using Typhoon Trio Imager and Image Quant TL Software and reaction rates are calculated by linear regression using GraphPad Prism 5.0. IC50 values are calculated in Prism by non-linear regression analysis using the dose-response (variable slope) equation (four-parameter logistic equation): Y=Bottom+(Top-Bottom)/(1+10^((Log IC50−X)*HillSlope)).

Assay [4] concerns the target T1, POLRMT. The assay is described as follows: Inhibition of human mitochondrial RNA polymerase (POLRMT). It is filed as biochemical. The following applies: nucleotide triphosphate. Here is the method:
All reaction mixtures contained 50 mM Tris-HCl buffer (pH 8.0), 0.2 mg/ml BSA, 2 mM DTT, 0.05 mg/ml activated fish sperm DNA, 10 mM MgCl2, 1.3 μCi [α-^33P]dTTP (3,000 Ci/mmol), and 2 μMeach of dATP, dGTP, and TTP. The optimal enzyme concentrations were chosen to be in the linear range of enzyme concentration ([E]) versus activity, and the reaction time was selected to ensure that 10% of the substrate was consumed. All reactions were run at 37° C. […] The reactions were heated to 32° C. and initiated by adding 2.5 μM each of the four natural NTPs and 1.5 μCi of [^33P]GTP. After incubation for 30 min at 32° C., the reactions were spotted on DE81 paper before being processed for quantification.

T1 sequence (O00411 42-1230): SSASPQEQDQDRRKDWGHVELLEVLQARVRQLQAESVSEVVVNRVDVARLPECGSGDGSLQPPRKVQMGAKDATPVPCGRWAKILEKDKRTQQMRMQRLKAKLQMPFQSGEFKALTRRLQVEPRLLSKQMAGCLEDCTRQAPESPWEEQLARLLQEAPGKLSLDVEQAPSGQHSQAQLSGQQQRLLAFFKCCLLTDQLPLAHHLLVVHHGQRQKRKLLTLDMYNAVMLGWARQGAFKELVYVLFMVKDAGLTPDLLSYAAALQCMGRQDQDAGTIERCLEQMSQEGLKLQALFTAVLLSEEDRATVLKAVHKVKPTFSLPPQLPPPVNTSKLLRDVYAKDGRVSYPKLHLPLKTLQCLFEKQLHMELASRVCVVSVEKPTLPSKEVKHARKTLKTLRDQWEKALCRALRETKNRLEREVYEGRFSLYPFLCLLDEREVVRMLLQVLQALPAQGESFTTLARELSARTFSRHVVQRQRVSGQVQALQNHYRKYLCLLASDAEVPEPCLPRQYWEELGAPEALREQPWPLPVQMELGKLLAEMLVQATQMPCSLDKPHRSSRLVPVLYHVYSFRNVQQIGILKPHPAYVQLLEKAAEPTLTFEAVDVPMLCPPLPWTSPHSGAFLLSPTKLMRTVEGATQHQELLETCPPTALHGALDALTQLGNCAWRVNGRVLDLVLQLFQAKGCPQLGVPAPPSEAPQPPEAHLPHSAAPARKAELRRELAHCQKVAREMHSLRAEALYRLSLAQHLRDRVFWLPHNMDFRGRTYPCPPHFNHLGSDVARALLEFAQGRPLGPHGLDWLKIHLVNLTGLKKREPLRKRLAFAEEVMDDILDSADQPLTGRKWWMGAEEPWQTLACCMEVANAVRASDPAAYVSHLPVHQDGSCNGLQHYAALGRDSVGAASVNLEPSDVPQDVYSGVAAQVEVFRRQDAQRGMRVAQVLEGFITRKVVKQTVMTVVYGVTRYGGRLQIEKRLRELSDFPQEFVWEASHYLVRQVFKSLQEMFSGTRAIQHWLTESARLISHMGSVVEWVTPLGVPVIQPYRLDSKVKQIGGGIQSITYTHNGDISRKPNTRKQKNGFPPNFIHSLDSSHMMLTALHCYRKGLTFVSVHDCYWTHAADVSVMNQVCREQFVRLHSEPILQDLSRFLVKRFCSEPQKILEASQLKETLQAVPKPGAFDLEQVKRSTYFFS
T2 sequence (P03421 whole entry): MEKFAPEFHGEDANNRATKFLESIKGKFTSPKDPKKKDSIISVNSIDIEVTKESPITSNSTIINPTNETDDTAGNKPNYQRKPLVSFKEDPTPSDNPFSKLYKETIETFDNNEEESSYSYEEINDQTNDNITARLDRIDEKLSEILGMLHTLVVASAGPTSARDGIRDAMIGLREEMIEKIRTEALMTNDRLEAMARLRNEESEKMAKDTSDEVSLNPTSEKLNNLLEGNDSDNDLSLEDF
T2 sequence (P28887 whole entry): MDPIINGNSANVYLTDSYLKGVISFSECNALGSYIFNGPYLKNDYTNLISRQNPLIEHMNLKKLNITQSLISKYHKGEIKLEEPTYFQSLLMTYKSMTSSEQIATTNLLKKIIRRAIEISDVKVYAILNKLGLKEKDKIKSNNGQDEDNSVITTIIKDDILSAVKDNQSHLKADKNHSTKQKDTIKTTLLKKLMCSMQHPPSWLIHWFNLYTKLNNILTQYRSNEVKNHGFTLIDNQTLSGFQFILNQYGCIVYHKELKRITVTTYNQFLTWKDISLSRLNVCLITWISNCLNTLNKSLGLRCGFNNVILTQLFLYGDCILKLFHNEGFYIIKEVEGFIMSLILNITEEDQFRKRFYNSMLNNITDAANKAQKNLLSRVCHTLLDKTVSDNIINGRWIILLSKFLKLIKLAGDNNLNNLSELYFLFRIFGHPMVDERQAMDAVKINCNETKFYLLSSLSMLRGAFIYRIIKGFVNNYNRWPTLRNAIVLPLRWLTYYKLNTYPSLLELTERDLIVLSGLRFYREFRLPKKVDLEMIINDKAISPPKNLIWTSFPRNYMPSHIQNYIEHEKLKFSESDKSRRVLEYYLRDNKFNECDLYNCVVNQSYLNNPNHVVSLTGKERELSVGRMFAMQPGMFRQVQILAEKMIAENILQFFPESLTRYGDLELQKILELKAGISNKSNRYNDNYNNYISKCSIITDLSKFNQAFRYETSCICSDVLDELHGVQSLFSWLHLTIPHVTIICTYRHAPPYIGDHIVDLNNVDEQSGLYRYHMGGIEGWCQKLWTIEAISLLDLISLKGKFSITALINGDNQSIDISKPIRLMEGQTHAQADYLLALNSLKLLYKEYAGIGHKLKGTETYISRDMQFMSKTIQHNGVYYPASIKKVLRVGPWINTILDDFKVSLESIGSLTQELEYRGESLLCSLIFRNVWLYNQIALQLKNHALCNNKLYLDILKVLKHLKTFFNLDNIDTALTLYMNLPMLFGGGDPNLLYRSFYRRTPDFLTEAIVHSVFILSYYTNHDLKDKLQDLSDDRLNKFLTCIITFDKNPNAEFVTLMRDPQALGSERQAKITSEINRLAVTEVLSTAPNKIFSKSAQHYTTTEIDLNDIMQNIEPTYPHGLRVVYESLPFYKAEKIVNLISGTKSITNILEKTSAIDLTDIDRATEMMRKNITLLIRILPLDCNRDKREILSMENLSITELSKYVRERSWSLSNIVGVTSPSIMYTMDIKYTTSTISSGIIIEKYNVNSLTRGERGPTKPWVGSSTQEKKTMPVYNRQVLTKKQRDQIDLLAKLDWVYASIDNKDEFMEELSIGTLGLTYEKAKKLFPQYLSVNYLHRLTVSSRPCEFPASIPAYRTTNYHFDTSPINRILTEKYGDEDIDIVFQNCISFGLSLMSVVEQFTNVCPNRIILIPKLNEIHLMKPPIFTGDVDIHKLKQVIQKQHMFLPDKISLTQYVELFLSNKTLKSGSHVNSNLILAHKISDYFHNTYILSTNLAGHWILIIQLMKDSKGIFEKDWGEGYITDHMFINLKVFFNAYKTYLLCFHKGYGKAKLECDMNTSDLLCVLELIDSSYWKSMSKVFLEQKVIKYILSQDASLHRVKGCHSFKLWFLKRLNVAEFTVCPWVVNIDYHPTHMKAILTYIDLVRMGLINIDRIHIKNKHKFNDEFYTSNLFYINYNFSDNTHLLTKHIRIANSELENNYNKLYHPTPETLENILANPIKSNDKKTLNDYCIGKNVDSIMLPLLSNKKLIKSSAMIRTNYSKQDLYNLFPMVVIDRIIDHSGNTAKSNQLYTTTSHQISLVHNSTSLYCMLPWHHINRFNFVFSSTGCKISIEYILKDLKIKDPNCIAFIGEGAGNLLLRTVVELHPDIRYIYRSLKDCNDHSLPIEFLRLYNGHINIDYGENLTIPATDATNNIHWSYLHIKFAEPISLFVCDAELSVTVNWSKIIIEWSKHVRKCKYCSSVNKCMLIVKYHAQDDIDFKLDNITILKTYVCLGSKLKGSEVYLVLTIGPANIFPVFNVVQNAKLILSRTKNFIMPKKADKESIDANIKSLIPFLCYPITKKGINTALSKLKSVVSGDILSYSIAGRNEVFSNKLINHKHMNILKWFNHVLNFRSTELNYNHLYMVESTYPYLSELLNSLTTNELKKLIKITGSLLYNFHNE

As to `Nc1ncnn2c([C@@H]3O[C@](CCl)(COP(=O)(O)OP(=O)(O)OP(=O)(O)O)[C@@H](O)[C@H]3O)ccc12` [—CH2Cl], in assay [1], the “POLRMT SNI %” value is 0.11%. Further, the results for the IC50 in assay [2] and in assay [3] were 1.1 µM and 7.1 µM, respectively.
As for `N#C[C@]1(COP(=O)(O)OP(=O)(O)OP(=O)(O)O)O[C@@H](c2ccc3c(N)ncnn23)[C@H](O)[C@@H]1O` [—CN], the “POLRMT SNI %” value in assay [1] was found to be 0.6%. For the same compound, the concentration for half-maximal inhibition (IC50) in assay [2] is 0.044 µM; in assay [4] it was above 200 µM; in assay [3], 0.83 µM.

The values above are taken from patent US12264173B2 (GILEAD SCIENCES, INC., priority 2020, dated 2025).
